Data reported in patent US8846012B2, “Melanin production inhibitor” (Pola Chemical Industries Inc., priority 2008, dated 2014).
≈ marks a conversion by molar mass, not a printed value. Like-named read-outs stand apart in the source and are kept apart here.

What was measured:
[1] = test system: ultraviolet ray-induced pigmentation; assay: Ultraviolet ray-induced pigmentation inhibition test using pigmented guinea pigs; format: in vivo; conditions: for ΔL* value: 1% (w/v) in ethanol, 30 μL once a day for 6 weeks, L* day 57 minus L* day 15, mean ± SD of eight animals; for inhibition of pigmentation induced by ultraviolet rays (in words): applied to the skin at a concentration of 1%
Source text: The hair of the dorsal skin of each of eight pigmented guinea pigs was removed and shaved using an electrical hair clipper and shaver, and each of the sites was covered with a black cloth having a total of four (two on the top and bottom and two on the right and left) irradiation windows with a size of 2×2 cm, and then irradiated with ultraviolet rays of 300 mJ/cm^2 using FL20S•E30 lamp as a light source. This operation was repeated on days 1, 3, 5, 8, 10, and 12 after the start of the test to induce pigmentation on the four test sites.
Compound 2, Compound 3, and Compound 4 were dissolved in ethanol at a concentration of 1% (w/v) to prepare samples for application. Further, as a control, ethanol was used alone as a sample for application.
On day 15 of the test, application of the samples was started. The respective samples were applied to the predetermined test sites once a day in an amount of 30 μL, and the application was continued for 6 weeks (until day 56 of the test).
On the day of the start of application (day 15 of the test) and after the completion of application for 6 weeks (on day 57 of the test), the skin brightness (L* value) of each of the test sites was measured using a colorimeter (CR-200, Konica Minolta Holdings, Inc.), and a ΔL* value was calculated by subtracting an L* value on day 15 of the test from an L* value on day 57 of the test. […] As degree of the pigmentation becomes stronger, the L* value becomes smaller. Therefore, it can be evaluated that, as the ΔL* value becomes larger, pigmentation is more inhibited.

[2] = test system: normal human melanocytes; assay: Melanin production inhibition test using cultured normal human melanocytes (14C-thiouracil incorporation); format: cell-based; conditions: Homo sapiens, Melanocyte; for activity at 5 µM: addition amount 5.0 μM
Experimental: The inhibitory effect on melanin production of the melanin production inhibitor of the present invention can be measured using thiouracil which is incorporated specifically into cells in a melanin synthesis process in the cells. For example, the amount of melanin production can be measured by measuring an amount of thiouracil incorporated into cells by measuring an amount of radiation with radiolabeled thiouracil.
The inhibitory effect on melanin production of Compound 1 was evaluated using 2-thiouracil (^14C-labeled 2-thiouracil was used in this test) which is incorporated specifically into melanin in an intracellular melanin synthesis process. Complete medium for culture of melanocytes (manufactured by Kurabo Industries Ltd.) was added to 15 wells in a 24-well plate in an amount of 2 mL per well, and normal human melanocytes (manufactured by Kurabo Industries Ltd.) were seeded into the wells at a concentration of 1.5×10^4 cells/cm^2. The cells were cultured in a 5% carbon dioxide atmosphere at 37° C. for 24 hours. Thereafter, the medium in all the wells was exchanged under the following conditions: fresh complete medium for culture of melanocytes (control) was used in three wells; each of complete medium for culture of melanocytes, which including Compound 1 at concentrations of 1.0 μM, 2.0 μM, and 4.0 μM, was used in a total of nine wells including three wells for each concentration; and complete medium for culture of melanocytes, each of which including arbutin (positive control) known as a melanin production inhibitor at a concentration of 0.5 mM (500 μM), was used in the other three wells. Further, 2-[2-^14C]thiouracil (^14C-labeled thiouracil) was added to each of these 15 wells at 0.25×10^−6 Ci (curie). Then, the cells were cultured for further 3 days under the same conditions as the above. After the completion of culture, the culture medium was removed from the wells, and the cells were washed with phosphate buffered physiological saline (PBS) and then separated from the bottoms of the wells with medium including trypsin and EDTA to prepare cell suspensions, followed by centrifugation to collect the cells. The number of the cells was counted using a hemocytometer. Thereafter, the amounts of ^14C-thiouracil in the cells collected from each well (0.25×10^−6 Ci) were measured using a liquid scintillation counter (ALOKA CO., LTD.). The percentages of an amount of radioactivity in the cells cultured in the medium including the test substances with respect to an amount of radioactivity in the cells collected from the well of the control were calculated as amounts of melanin (%). That is, as the amount of radioactivity incorporated into the cells is smaller, the amount of melanin is evaluated to be smaller, i.e., the melanin inhibition effect of the component added is evaluated to be larger.
Inhibitory effects on melanin production of Compounds 2 to 39 (however, the effects of Compound 9 and 15 were not measured) were examined in the same procedure as in Test Example 1.
These were examined in the same procedure as in Test Example 1.
Further, the results of melanin production inhibition by treatment with the respective test compounds, determined in the same procedure as in Test Example 1, are also shown in the table.

[3] = test system: Trichopyton mentagrophytes (ATCC18748); assay: Measurement of antimycotic activity (Alamar Blue growth inhibition of dermatophytes); format: cell-based; conditions: for MIC80: read-out: MIC80 Concentration
Experimental: 10.4 g of RPMI1640 (manufactured by SAFC Biosciences) were dissolved in 900 mL of distilled water, and 34.53 g of a 0.165 M MOPS buffer (manufactured by DOJINDO LABORATORIES) were added and dissolved by stirring.
Dermatophytes (Trichopyton mentagrophytes (ATCC18748)) were inoculated into a 1/10 Sabouraud Dextrose agar medium (manufactured by DIFCO) and cultured at 28° C. for 14 days, and then a conidial suspension was prepared using 0.1% Tween80-including physiological saline. The suspension was filtered through gauze, and the number of the conidia was counted using a hemocytometer and then adjusted to 2.5×10^5/mL with the RPMI1640 medium. The resultant suspension was used as an inoculum.
Compound 5 and clotrimazole were diluted with the RPMI1640 medium to prepare 0.3125, 0.625, 1.25, 2.5, 5, 10, 20, and 200 μg/mL diluted solutions. The diluted solutions having different concentrations were dispensed into a 96-well flat-bottom microplate in an amount of 100 μL per well, and 80 μL of the inoculum and 20 μL of an Alamar Blue solution (manufactured by Nalgene) were further added thereto. Further, 80 μL of the inoculum and 20 μL of the Alamar Blue solution were added to 100 μL of the RPMI1640 medium in growth control wells, and 20 μL of the Alamar Blue solution was added to 180 μL of the RPMI1640 medium in negative control wells. The microplate was placed in a chamber in which the humidity was kept constant, and culture was started at 27° C., and the cells were observed every 24 hours. 120 hours from beginning of culture, i.e., when the growth control became obviously red (reduced form), absorbance measurement at 570 nm was performed using a microplate reader (SPECTRAMAX 250, manufactured by Molecular Device).
The test compounds were tested at the respective concentrations in triplicate. The growth inhibition rate (%) of each of the test compound-added groups was determined by the following equation based on a value calculated by subtracting an average absorbance value of the negative control from an average absorbance value of the growth control and the test compound-added wells. Further, […] (minimum inhibitory concentration; the minimum concentration at which the growth inhibition rate is 80% or more) was calculated from the growth inhibition rate of each test compound. Growth inhibition rate (%)=[1−(average absorbance value in test compound-added wells-average absorbance value of negative control)/(average absorbance value of growth control-average absorbance value of negative control)]×100
Compound 1, Compounds 3 to 6, Compound 40, Compound 41, triphenylmethylamine, triphenylmethanol, triphenylmethane, aminodiphenylmethane, and clotrimazole were diluted with the RPMI1640 medium to prepare 0.3125, 0.625, 1.25, 2.5, 5, 10, 20, and 200 μg/mL diluted solutions. The diluted solutions having different concentrations were dispensed into a 96-well flat-bottom microplate in an amount of 100 μl, per well, and 80 μL of the inoculum and 20 μl, of an Alamar Blue solution (manufactured by Nalgene) were further added thereto. Further, 80 μl, of the inoculum and 20 μl, of the Alamar Blue solution were added to 100 μL of the RPMI1640 medium in growth control wells, and 20 μL of the Alamar Blue solution was added to 180 μL of the RPMI1640 medium in negative control wells. The microplate was placed in a chamber in which the humidity was kept constant, and then culture was started at 27° C., and the cells were observed every 24 hours. 120 hours from beginning of culture, i.e., when the growth control became obviously red (reduced form), absorbance measurement at 570 nm was performed using a microplate reader (SPECTRAMAX 250, manufactured by Molecular Device).
The test compounds were tested at the respective concentrations in triplicate. […]

[4] = minimum concentration at which the growth inhibition rate is 80% or more

SMILES: OCCOC(c1ccccc1)(c1ccccc1)c1ccccc1 [Compound 2, 2-(triphenylmethyloxy)ethanol]
- ΔL* value [1]: 3.9 ± 0.94
- inhibition of pigmentation induced by ultraviolet rays (in words) [1]: obviously inhibited pigmentation induced by ultraviolet rays
- activity at 5 µM ([2]; Table 2, control = 100%): 44 ± 3.2%

SMILES: OCCNC(c1ccccc1)(c1ccccc1)c1ccccc1 [Compound 3, 2-(triphenylmethylamino)ethanol]
- growth inhibitory effect on Trichopyton mentagrophytes (in words) ([3]; added at a concentration of 100 μg/mL): no growth inhibitory effect
- MIC80 [3, 4]: > 100 µg/mL
- ΔL* value [1]: 3.9 ± 0.52
- inhibition of pigmentation induced by ultraviolet rays (in words) [1]: obviously inhibited pigmentation induced by ultraviolet rays
- activity at 5 µM ([2]; Table 2, control = 100%): 51.6 ± 4.2%
- activity at 10 µM ([2]; Table 7, treatment concentration 10 μM, read-out: Amount of melanin): 22.3 ± 0.63%

SMILES: NCCOC(c1ccccc1)(c1ccccc1)c1ccccc1 [Compound 4, 2-(triphenylmethyloxy)ethylamine]
- MIC80 Concentration [3, 4]: 100.0000 µg/mL (≈ 330 µM)
- MIC80 [3, 4]: 100 µg/mL (≈ 330 µM)
- ΔL* value [1]: 3.4 ± 0.8
- inhibition of pigmentation induced by ultraviolet rays (in words) [1]: obviously inhibited pigmentation induced by ultraviolet rays
- activity at 2 µM ([2]; Table 7, treatment concentration 2 μM, read-out: Amount of melanin): 34.2 ± 3.58%
- activity at 2 µM ([2]; Table 2, addition amount 2.0 μM, control = 100%): 33.8 ± 0.8%
